Key:
[1] = MRI distribution of Mn^++ in the rabbit eye after iontophoresis with a handheld ocular iontophoretic device; assay type: in vivo; details: finger pressure, hydrogel 1.0M Mn^++, 2 mA for 20 minutes, return electrode on ear, 3 Tesla MRI, FIG. 7
Text: A handheld ocular iontophoretic device is constructed from a plastic tube, wherein one end is shaped to conform to the eye of a rabbit. An electroplated AgAgCl electrode is positioned in one end of the plastic tube and a hydrogel is inserted into the tube so that one side of the hydrogel contacts the electrode, while the opposite side is configured to contact the eye. The hydrogel has been previously loaded with 1.0M Mn^++. The iontophoretic device is coupled to a power source and placed against the surface of an eye of a rabbit, partially within the cul-de-sac in a dorsal location. A return electrode is attached to the ear of the rabbit, and finger pressure is used to seal the device against the eye. 2 mA of current is applied to the iontophoretic device for 20 minutes to deliver the Mn^++ from the hydrogel and into the eye.

[2] = MRI distribution of Mn^++ in the rabbit eye after iontophoresis with an iontophoretic scleral lens device with suction; assay type: in vivo; details: suction applied, hydrogel 1.0M Mn^++, 3 mA for 20 minutes, 3 Tesla MRI, FIG. 8
Text: An iontophoretic scleral lens device is configured to conform to the eye of a rabbit. An electroplated AgAgCl electrode coupled to a 1.0M Mn^++ filled hydrogel is located within a reservoir structure along the contact surface of the scleral lens. The iontophoretic device is coupled to a power source and positioned on an eye of a rabbit, such that the reservoir is located partially within the cul-de-sac in a dorsal region of the eye. A return electrode is attached to the ear of the rabbit, and suction is applied to the scleral lens to preclude movement of the lens relative to the eye surface. 3 mA of current is applied to the scleral lens device for 20 minutes to deliver the Mn^++ from the hydrogel and into the eye. […] Diffusion from this region can be seen in the white band extending toward the posterior eye tissues.

Distribution of the Mn^++ within the eye of the rabbit (MRI, white contrast) ([2]; return electrode on ear): delivered primarily into the eye tissues
SMILES: [Mn+2] [Mn^++]
Distribution of the Mn^++ within the eye of the rabbit (MRI, white contrast) [1]: delivered primarily to the eyelid and surrounding tissues with relatively little delivery into the eye itself
Depot formation in the eye (MRI, black region along the dorsal region of the eye) [2]: formation of a depot of concentrated Mn^++
